{"source": "patent US20250041313A1", "about": "“COMBINATION THERAPY FOR TREATMENT OF CANCER” (CITY OF HOPE, priority 2023, published 2025)", "key": {"SBC3 xenograft": {"system": "SBC3 xenograft", "assay": "SBC3 mouse xenograft, Carbo/Leflu study", "assay_type": "in vivo", "method": "Athymic nude nu/nu mice were obtained from Charles River, Wilmington, MA, and were acclimated for a week before beginning the experiment. All animal experiments were carried out in accordance with a protocol approved by the Institutional Animal Care and Use Committee COH (IACUC #16004). For treatments, mice were divided into 4 groups with five mice per group and subcutaneously injected into one flank with 2×10^6 SBC3 or SBC5 cells suspensions in 100 μl of PBS. Treatment started on the 14th day when tumors became palpable. Two in vivo studies were done in this project. SBC3 and SBC 5 xenograft with i) vehicle control, ii) […] 50 mg/kg, iii) Leflu 7.5 mg/kg, and iv) […]/Leflu. SBC3 with i) vehicle control, ii) Lur 0.5 mg/kg, iii) Leflu 3.8 mg/kg, and iv) Lur/Leflu. Treatments were given to mice via i.p. twice a week for 6 weeks. Animals were examined daily for signs of tumor growth. Tumors were measured in two dimensions using calipers and body weights were recorded. Animals were photographed on days 1, 5, 10, 15, 20, 25, 30, 35, and 40 after treatment. Tumors were removed on day 40 and photographed. At the end of the study, the mice were euthanized by CO2 asphyxiation followed by cervical dislocation. The tumor weights were compared between groups using an unpaired Student's t-test. A portion of the tumor was fixed in 10% buffered formaldehyde solution and paraffin-embedded for immuno-staining. FFPE tumor sections were stained with pDRP Ser^616 antibody. Tumor sections were deparaffinized and rehydrated, followed by heat-mediated antigen retrieval (pH 6, Dako). After permeabilization and blocking, tumor sections were stained with pDRP1 Ser^616 antibody overnight, washed and incubated with Alexa 488 secondary antibody for one hour, mounted and observed on an LSM 880 with a 10×/0.45 NA objective (Carl Zeiss). Immunofluorescent confocal images were acquired for each treatment (magnification:100×). Mean immunofluorescence intensities were calculated with ZEN 2.3 Lite software."}, "[1]": {"details": "cited from earlier work"}, "H446 spheroids": {"system": "H446 spheroids", "assay": "Spheroid LDH cytotoxicity/death assay", "assay_type": "cell-based, human", "details": "72 h", "method": "(§1) SBC3 and H446 cells were plated at a density of 10,000 cells per well in 96-well ULA round-bottomed plates (S-Bio, Hudson, NH) and incubated for 72 h at 37° C., 5% CO2, and 95% humidity. Spheroids were transferred to low cell attachment dishes, grown for two days, and treated with drug. After treatment, spheroid samples were run with Western blot assay. For spheroid mitochondria visualization, they were stained with 250 nM MitoTracker® Red CMXRos and Hoechst from ThermoFisher Scientific (Waltham, MA) for 2 h after drug treatment. Spheroids were washed, fixated with 4% PFA, transferred into 96-well flat glass-bottom black microplate (Cellvis, Mountain View, CA), and mounted in wells.\nLDH activity was measured using LDH Cytotoxicity Assay Kit following the manufacturer protocol (Thermo Fisher Scientific, Waltham, MA). Briefly, H446 and SBC3 spheroids after 72 hours of drug treatments were mixed with 10 μl 10× lysis buffer and incubated for 45 min in cell culture incubator. 50 μl of lysed cells from each sample were used to measure absorbance by plate reader (Tecan Spark 10, Salzburg, Austria). Percentage of cell cytotoxicity/death was calculated by using the following formula: […]"}, "SBC3 spheroids": {"system": "SBC3 spheroids", "assay": "Immunoblotting of spheroid lysates", "assay_type": "cell-based, human", "method": "(§2) SCLC total cell lysates were prepared using RIPA (radioimmunoprecipitation assay lysis buffer) lysis buffer. Protein concentration was determined using DC Protein Assay Kit Bio-Rad (Hercules, CA). Samples were then run on SDS-PAGE in 4-15% polyacrylamide gels and transferred onto Immobilon membranes (Millipore, MO), blocked, incubated with specific primary antibodies at 4° C. overnight, and subsequently developed with secondary antibodies. The following primary antibody were used: pan-Actin, Phospho-DRP1 (Ser^616), Phospho-DRP1 (Ser^637), Histone H2B (V^119), Phospho-Histone H2A.X (Ser^139), Phospho-P53 (Ser^15), P-53, Cleaved PARP (Asp^214) (D64E10), Phospho-Chk1 (Ser^345) (133D3) and p21 were from Cell Signaling Technology (City of Industry, CA), β-Actin (Sigma-Aldrich, St. Luis, MO), Phospho RNA Polymerase II (S2) antibody (Bethyl Lab, Montgomery, TX), RNA Polymerase II CTD4H8 (BioLegend, San Diego, CA), DHODH (E-8), DRP1 (C-5), GAPDH (0411), c-Myc (9E10), Tom20 (F-10), FisI (B-5), OPA1 (D-9), antibodies from Santa Cruz Biotechnology (Dallas, TX) and MFN2 (Abcam, Boston, MA) and Chk1, MDM2, Cyclin CDK4 and D1, and E2F1 (Proteintech, Rosemont, IL).\nas §1"}, "SBC5 SCLC cell line": {"system": "SBC5 SCLC cell line", "assay": "Immunoblotting of DRP1 phosphorylation", "assay_type": "cell-based, human", "details": "SBC5 as printed", "method": "as §2\nAlthough mitochondrial areas of SBC5 cells were not affected with treatment, elongations of individual mitochondria were detected with each treatment."}, "[2]": {"system": "pDRP1 (Ser616) in SBC3 cells", "assay": "pDRP1 Ser616 immunofluorescence staining, QuPath", "assay_type": "cell-based, human", "details": "SBC3, Teri overnight", "method": "(§3) SBC3 and SBC5 cells were grown on glass coverslips and treated with Teri overnight. Next, cells were fixed in 4% paraformaldehyde, permeabilized, and blocked before incubating with pDRP1 (Ser^616) antibody followed by Alexa 488 secondary antibody. This was followed by staining with Tom20 (F-10) antibody. A far-red dye was used for cytoplasmic staining. Fluorescent images were acquired on an Axio Observer 7 inverted microscope (Carl Zeiss, Jena, Germany). Nuclei and DRP1 were stained with DAPI and Alexa 488 secondary antibody. All imaging was performed using a 40×/0.95 NA Plan-Apochromat objective with a final per pixel scaling of 0.147 by 0.147 microns. Within each 3×3 field of image view (>200 cells per image), QuPath 0.2.0M9 was used to detect cell nuclei, a cytoplasmic area around the nucleus was expanded for analysis, followed by limiting the area of that blind expansion based on the presence of the cytoplasmic dye. […] The mean pDRP1 signal intensity was then measured within that area. The green intensity sum of these areas was calculated per cell and then averaged for each sample image.\n(§4) Additionally, SBC3 and SBC5 cells were stained with pDRP1 Ser^616 antibody (2° ab Alexa488), and the phosphorylation level was analyzed with QuPath 0.2.0M9 software."}, "[3]": {"system": "pDRP1 (Ser616) in SBC5 cells", "assay": "pDRP1 Ser616 immunofluorescence staining, QuPath", "assay_type": "cell-based, human", "details": "SBC5, Teri overnight", "method": "as §3, §4"}}, "data": [{"molecule": "Cc1oncc1C(=O)Nc1ccc(C(F)(F)F)cc1", "note": "[Leflunomide, leflunomide]", "values": [{"measurement": "pDRP1 Ser616 immunofluorescence in tumor sections", "setting": "SBC3 xenograft; SBC3 xenograft FFPE tumors", "value": "significant decrease"}, {"measurement": "reduction in tumor size/weight", "setting": "SBC3 xenograft; SBC3 xenograft, day 40, vs control", "value": "~36", "unit": "%"}, {"measurement": "average final tumor weight at end of study (day 40)", "setting": "SBC3 xenograft; SBC3 xenograft, Carbo 50 mg/kg, Leflu 7.5 mg/kg, i.p. twice a week", "value": "1.01 ± 0.14", "unit": "g"}, {"measurement": "safety profile", "setting": "[1]; up to 40 mg/day, patients with Wegner's granulomatosis", "value": "safety profile like the 20 mg/day dose"}, {"measurement": "time to attain steady state concentrations", "setting": "[1]; without a loading dose, estimated, FDA label", "value": "two"}]}, {"molecule": "COc1ccc2[nH]c3c(c2c1)CCN[C@]31CS[C@@H]2c3c(OC(C)=O)c(C)c4c(c3[C@H](COC1=O)N1[C@@H]2[C@H]2c3c(cc(C)c(OC)c3O)C[C@@H]([C@@H]1O)N2C)OCO4", "note": "[Lurbinectedin, lurbinectedin]", "values": [{"measurement": "percentage of dead cells", "setting": "H446 spheroids", "value": "significantly increased"}, {"measurement": "p21 level", "setting": "SBC3 spheroids", "value": "upregulated"}]}, {"molecule": "C/C(O)=C(\\C#N)C(=O)Nc1ccc(C(F)(F)F)cc1", "note": "[Teriflunomide, teriflunomide]", "values": [{"measurement": "DRP1 expression level", "setting": "SBC5 SCLC cell line", "value": "unaffected"}, {"measurement": "DRP1 phosphorylation at Ser616, and Ser637", "setting": "SBC5 SCLC cell line", "value": "significantly inhibits"}, {"measurement": "pDRP1 Ser616 green IF signal intensity", "setting": "[2]", "value": "significant signal intensity decreased"}, {"measurement": "pDRP1 Ser616 green IF signal intensity", "setting": "[3]", "value": "significant signal intensity decreased"}]}]}
